Biological target: T1, F508delCFTR (Homo sapiens, UniProt P13569, DEL508-508)
T1 construct: expressed in transfected cells; host or cells: CFBE41o- (human lung derived epithelial cell line), doxycycline-inducible
Experiment: Cell Surface Expression-Horse Radish Peroxidase (CSE-HRP) assay
Type: cell-based
Details: CFBE41o-F508delCFTR-HRP cells; for EC50: F508delCFTR cell surface expression, luminescence, 18-24 hours at 33° C., highest concentration 20 μM; for Maximum % activity: maximum at any tested concentration, normalized to on-plate positive control (3 μM)
Method in brief: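 CFBE41o- cells expressing doxycycline-induced (0.5 μg/mL, 72 h at 37 °C) F508delCFTR with HRP in the fourth extracellular loop; compounds 8 points, 3-fold from 20 μM, 18-24 h at 33 °C. Surface HRP measured by luminol luminescence, normalised to DMSO and 3 μM reference corrector; EC50 from variable-slope sigmoidal fit of triplicate plates.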

T1 sequence (P13569 with tags, fused parts or gaps DEL508-508): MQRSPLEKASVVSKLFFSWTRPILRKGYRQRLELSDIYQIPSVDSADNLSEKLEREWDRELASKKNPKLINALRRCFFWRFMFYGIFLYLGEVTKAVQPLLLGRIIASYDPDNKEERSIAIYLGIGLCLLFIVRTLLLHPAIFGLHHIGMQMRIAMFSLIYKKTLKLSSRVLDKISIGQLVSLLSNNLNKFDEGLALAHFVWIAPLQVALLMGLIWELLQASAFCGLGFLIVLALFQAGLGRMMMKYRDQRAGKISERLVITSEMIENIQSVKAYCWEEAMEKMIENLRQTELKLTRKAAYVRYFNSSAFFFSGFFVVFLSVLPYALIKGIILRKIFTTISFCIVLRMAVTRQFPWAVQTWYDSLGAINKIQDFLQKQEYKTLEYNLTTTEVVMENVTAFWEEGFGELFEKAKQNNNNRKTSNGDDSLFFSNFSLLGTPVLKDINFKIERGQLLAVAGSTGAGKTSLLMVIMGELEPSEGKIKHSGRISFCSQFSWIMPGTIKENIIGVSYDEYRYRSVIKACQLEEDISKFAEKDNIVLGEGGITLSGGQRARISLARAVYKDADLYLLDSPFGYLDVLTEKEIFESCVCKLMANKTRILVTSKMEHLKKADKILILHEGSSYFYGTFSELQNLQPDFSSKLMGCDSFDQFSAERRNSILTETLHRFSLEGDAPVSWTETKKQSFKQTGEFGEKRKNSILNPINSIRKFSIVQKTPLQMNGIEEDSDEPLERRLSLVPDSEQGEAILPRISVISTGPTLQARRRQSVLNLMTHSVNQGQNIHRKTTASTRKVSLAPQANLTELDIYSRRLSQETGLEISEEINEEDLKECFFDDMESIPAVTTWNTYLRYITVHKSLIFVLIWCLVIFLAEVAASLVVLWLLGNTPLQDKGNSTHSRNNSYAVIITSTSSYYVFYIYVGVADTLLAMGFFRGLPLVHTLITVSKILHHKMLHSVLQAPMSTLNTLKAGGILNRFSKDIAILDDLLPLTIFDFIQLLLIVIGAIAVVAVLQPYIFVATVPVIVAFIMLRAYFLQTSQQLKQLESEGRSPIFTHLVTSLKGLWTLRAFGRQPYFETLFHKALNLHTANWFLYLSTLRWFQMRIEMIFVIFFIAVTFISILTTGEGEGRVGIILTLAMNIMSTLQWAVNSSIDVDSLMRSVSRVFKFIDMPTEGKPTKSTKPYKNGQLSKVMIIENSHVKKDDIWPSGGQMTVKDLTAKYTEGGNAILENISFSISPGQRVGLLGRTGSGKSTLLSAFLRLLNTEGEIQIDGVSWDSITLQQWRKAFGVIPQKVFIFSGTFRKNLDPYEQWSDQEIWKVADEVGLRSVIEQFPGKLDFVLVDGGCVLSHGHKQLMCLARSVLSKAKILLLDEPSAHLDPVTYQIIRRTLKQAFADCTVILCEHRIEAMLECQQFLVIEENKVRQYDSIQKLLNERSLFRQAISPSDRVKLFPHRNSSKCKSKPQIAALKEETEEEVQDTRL

Row | SMILES | EC50 [µM] | Maximum % activity [%]
1 | COc1ccc2c(c1)O[C@@H](c1ccc(C(=O)O)cc1)C[C@H]2NC(=O)C1(c2cccc(Br)c2)CC1 [Example 88, 4-[(2R,4R)-4-{[1-(3-bromophenyl)cyclopropane-1-carbonyl]amino}-7-methoxy-3,4-dihydro-2H-1-benzopyran-2-yl]benzoic acid] | 0.64 | 44.0
2 | COc1ccc2c(c1)O[C@@H](c1ccc(C(=O)O)cc1)C[C@H]2NC(=O)C1(c2ccccc2Br)CC1 [Example 89, 4-[(2R,4R)-4-{[1-(2-bromophenyl)cyclopropane-1-carbonyl]amino}-7-methoxy-3,4-dihydro-2H-1-benzopyran-2-yl]benzoic acid] | 0.75 | 42.0
3 | COc1ccc2c(c1)O[C@@H](c1ccc(C(=O)O)cc1)C[C@H]2NC(=O)C1(c2cccc(F)c2)CCCC1 [Example 90, 4-[(2R,4R)-4-{[1-(3-fluorophenyl)cyclopentane-1-carbonyl]amino}-7-methoxy-3,4-dihydro-2H-1-benzopyran-2-yl]benzoic acid] | > 20 | 8.1
4 | COc1ccc2c(c1)O[C@@H](c1ccc(C(=O)O)cc1)C[C@H]2NC(=O)C1(c2ccccc2F)CCCC1 [Example 91, 4-[(2R,4R)-4-{[1-(2-fluorophenyl)cyclopentane-1-carbonyl]amino}-7-methoxy-3,4-dihydro-2H-1-benzopyran-2-yl]benzoic acid] | > 20 | 5.0
5 | COc1ccc2c(c1)O[C@@H](c1ccc(C(=O)O)cc1)C[C@H]2NC(=O)C1(c2ccc(C#N)cc2)CC1 [Example 92, 4-[(2R,4R)-4-{[1-(4-cyanophenyl)cyclopropane-1-carbonyl]amino}-7-methoxy-3,4-dihydro-2H-1-benzopyran-2-yl]benzoic acid] | 0.35 | 62.0
6 | COc1ccc2c(c1)O[C@@H](c1ccc(C(=O)O)cc1)C[C@H]2NC(=O)C1(c2ccc(F)cc2)CCCC1 [Example 93, 4-[(2R,4R)-4-{[1-(4-fluorophenyl)cyclopentane-1-carbonyl]amino}-7-methoxy-3,4-dihydro-2H-1-benzopyran-2-yl]benzoic acid] | > 20 | 5.7
7 | COc1ccc2c(c1)O[C@@H](c1ccc(C(=O)O)cc1)C[C@H]2NC(=O)C1(c2ccccc2Br)CCC1 [Example 94, 4-[(2R,4R)-4-{[1-(2-bromophenyl)cyclobutane-1-carbonyl]amino}-7-methoxy-3,4-dihydro-2H-1-benzopyran-2-yl]benzoic acid] | 2.63 | 49.0
8 | COc1ccc2c(c1)O[C@@H](c1ccc(C(=O)O)cc1)C[C@H]2NC(=O)C1(c2ccc(Cl)c(Cl)c2)CCC1 [Example 95, 4-[(2R,4R)-4-{[1-(3,4-dichlorophenyl)cyclobutane-1-carbonyl]amino}-7-methoxy-3,4-dihydro-2H-1-benzopyran-2-yl]benzoic acid] | 1.33 | 76.0
9 | COc1ccc2c(c1)O[C@@H](c1ccc(C(=O)O)cc1)C[C@H]2NC(=O)C1(c2ccccc2Cl)CCC1 [Example 96, 4-[(2R,4R)-4-{[1-(2-chlorophenyl)cyclobutane-1-carbonyl]amino}-7-methoxy-3,4-dihydro-2H-1-benzopyran-2-yl]benzoic acid] | 3.01 | 33.0
10 | COc1ccc2c(c1)O[C@@H](c1ccc(C(=O)O)cc1)C[C@H]2NC(=O)C1(c2ccccc2)CCCC1 [Example 97, 4-{(2R,4R)-7-methoxy-4-[(1-phenylcyclopentane-1-carbonyl)amino]-3,4-dihydro-2H-1-benzopyran-2-yl}benzoic acid] | > 20 | 2.5
11 | COc1ccc2c(c1)O[C@@H](c1ccc(C(=O)O)cc1)C[C@H]2NC(=O)C1(c2ccc(Cl)cc2)CCCC1 [Example 98, 4-[(2R,4R)-4-{[1-(4-chlorophenyl)cyclopentane-1-carbonyl]amino}-7-methoxy-3,4-dihydro-2H-1-benzopyran-2-yl]benzoic acid] | > 20 | 13.0
12 | COc1ccc2c(c1)O[C@@H](c1ccc(C(=O)O)cc1)C[C@H]2NC(=O)C(C)(C)Oc1ccc2c(c1)OCO2 [Example 99, 4-[(2R,4R)-4-{2-[(2H-1,3-benzodioxol-5-yl)oxy]-2-methylpropanamido}-7-methoxy-3,4-dihydro-2H-1-benzopyran-2-yl]benzoic acid] | > 20 | 15.9
13 | COc1ccc2c(c1)CC[C@@]2(C)C(=O)N[C@@H]1C[C@H](c2ccc(C(=O)O)cc2)Oc2cc(OC)ccc21 [Example 100, 4-[(2R,4R)-7-methoxy-4-{[(1R)-5-methoxy-1-methyl-2,3-dihydro-1H-indene-1-carbonyl]amino}-3,4-dihydro-2H-1-benzopyran-2-yl]benzoic acid] | 0.48 | 55.3
14 | COc1ccc2c(c1)O[C@@H](c1ccc(C(=O)O)cc1)C[C@H]2NC(=O)C1(c2cccc(Cl)c2)CC1 [Example 101, 4-[(2R,4R)-4-{[1-(3-chlorophenyl)cyclopropane-1-carbonyl]amino}-7-methoxy-3,4-dihydro-2H-1-benzopyran-2-yl]benzoic acid] | 0.66 | 46.0
15 | COc1ccc2c(c1)O[C@@H](c1ccc(C(=O)O)cc1)C[C@H]2NC(=O)C1(c2ccccc2)CCC1 [Example 102, 4-{(2R,4R)-7-methoxy-4-[(1-phenylcyclobutane-1-carbonyl)amino]-3,4-dihydro-2H-1-benzopyran-2-yl}benzoic acid] | > 20 | 18.1
16 | COc1ccc2c(c1)O[C@@H](c1ccc(C(=O)O)cc1)C[C@H]2NC(=O)C1(c2ccccc2OC)CC1 [Example 103, 4-[(2R,4R)-7-methoxy-4-{[1-(2-methoxyphenyl)cyclopropane-1-carbonyl]amino}-3,4-dihydro-2H-1-benzopyran-2-yl]benzoic acid] | 4.01 | 29.0
17 | COc1ccc2c(c1)O[C@@H](c1ccc(C(=O)O)cc1)C[C@H]2NC(=O)C1(c2ccc(Br)cc2)CCC1 [Example 104, 4-[(2R,4R)-4-{[1-(4-bromophenyl)cyclobutane-1-carbonyl]amino}-7-methoxy-3,4-dihydro-2H-1-benzopyran-2-yl]benzoic acid] | 1.56 | 71.0
18 | COc1ccc2c(c1)O[C@@H](c1ccc(C(=O)O)cc1)C[C@H]2NC(=O)C1(c2ccccc2F)CC1 [Example 106, 4-[(2R,4R)-4-{[1-(2-fluorophenyl)cyclopropane-1-carbonyl]amino}-7-methoxy-3,4-dihydro-2H-1-benzopyran-2-yl]benzoic acid] | 1.29 | 46.0
19 | COc1ccc2c(c1)O[C@@H](c1ccc(C(=O)O)cc1)C[C@H]2NC(=O)C(C)(C)Oc1ccc(C#N)cc1 [Example 107, 4-{(2R,4R)-4-[2-(4-cyanophenoxy)-2-methylpropanamido]-7-methoxy-3,4-dihydro-2H-1-benzopyran-2-yl}benzoic acid] | 1.32 | 22.4
20 | COc1ccc2c(c1)O[C@@H](c1ccc(C(=O)O)cc1)C[C@H]2NC(=O)C1(c2ccc(Cl)cc2)CC1 [Example 108, 4-[(2R,4R)-4-{[1-(4-chlorophenyl)cyclopropane-1-carbonyl]amino}-7-methoxy-3,4-dihydro-2H-1-benzopyran-2-yl]benzoic acid] | 0.17 | 77.7
